Source: publication PMC9599461, “Stereoselectivity in the Membrane Transport of Phenylethylamine Derivatives by Human Monoamine Transporters and Organic Cation Transporters 1, 2, and 3” (Biomolecules, 2022)
Where two headings read alike, the source gives them in different places.

Key:
[1] = molecular target: T1, OCT3 (Homo sapiens, UniProt O75751); test: Stereoselective uptake into OCT3-overexpressing HEK293 cells; settings: for Clint ± SEM / Stereoselectivity Vmax / Stereoselectivity Km: OCT3; for Clint ± SEM: quotient of vmax over Km; for Stereoselectivity Vmax / Stereoselectivity Km: ratio between enantiomers; for Stereoselectivity Vmax: given as for (R) or for 1; for Stereoselectivity Km: given as for (R) or for 1 (first-eluting); for selectivity ratio at 2 min: human;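 on all read-outs here: intracellular accumulation in HEK293 cells measured by chiral HPLC-MS/MS after a 2 min substrate exposure at 37 °C, uptake normalized to total protein (bicinchoninic acid assay)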
T1 sequence (O75751 1-556): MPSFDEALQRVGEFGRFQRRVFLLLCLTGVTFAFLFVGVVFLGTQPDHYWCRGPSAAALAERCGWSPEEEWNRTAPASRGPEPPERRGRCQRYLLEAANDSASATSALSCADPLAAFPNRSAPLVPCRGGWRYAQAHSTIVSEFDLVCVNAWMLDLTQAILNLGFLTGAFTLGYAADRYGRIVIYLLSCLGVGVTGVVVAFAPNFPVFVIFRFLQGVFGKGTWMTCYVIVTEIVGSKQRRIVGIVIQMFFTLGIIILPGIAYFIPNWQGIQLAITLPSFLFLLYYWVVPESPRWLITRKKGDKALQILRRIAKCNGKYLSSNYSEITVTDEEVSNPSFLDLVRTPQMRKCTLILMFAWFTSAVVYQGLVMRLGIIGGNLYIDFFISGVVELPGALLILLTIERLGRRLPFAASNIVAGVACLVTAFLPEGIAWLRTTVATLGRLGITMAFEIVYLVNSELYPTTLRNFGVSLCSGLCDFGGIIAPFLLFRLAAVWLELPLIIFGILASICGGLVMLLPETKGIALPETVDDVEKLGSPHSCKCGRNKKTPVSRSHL
Experimental: (§1) All transport experiments were carried out in HEK293 cells stably overexpressing human MATs or OCTs. […] All cells were regularly cultivated in DMEM supplemented with 10% (v/v) FCS, penicillin (100 U/mL) and streptomycin (100 μg/mL)and kept in culture for no longer than 30 passages.
(§2) For the uptake experiments, 300,000 cells were plated in poly-D-lysine precoated 24-well plates 48 h ahead of the transport experiment. On the day of experiment, cells were initially washed once with 37 °C pre-warmed HBSS+ (Hanks buffered salt solution supplemented with 10 mM HEPES) and subsequently incubated with the substrates dissolved in pre-warmed HBSS+ for exactly two minutes. Incubation was stopped by adding ice-cold HBSS+ followed by two washing steps. After this, cells were lysed with 80% acetonitrile containing 10 ng/mL milnacipran as internal standard for high-performance liquid chromatography coupled to tandem mass spectrometry (HPLC-MS/MS) analysis. For every experiment, two additional wells per cell line were lysed using RIPA buffer for protein quantification. Total protein was quantified using the bicinchoninic acid assay [42]. This was later used for normalization of the uptake data.
(§3) Intracellularly accumulated test substances were quantified by HPLC-MS/MS analysis using a Shimadzu Nexera HPLC system with a SIL-30AC autosampler, a CTO-20AC column oven, a LC-30AD pump, and a CBM-20A controller (Shimadzu, Kyoto, Japan). Stereoselective chromatography was carried out on a [sequence] CBH HPLC column (100 × 3 mm inner dimension with 5 μM particle size; Sigma-Aldrich, Darmstadt, Germany) with a corresponding 10 × 3 mm guard column. Reversed phased chromatography was carried out using an ammonium acetate (NH4Ac) buffered aqueous mobile phase with isopropyl alcohol (IPA) as organic solvent. […] The order of elution of the enantiomers was obtained from available reference literature [43] or by applying enantiopure reference compounds to the chiral HPLC. […] Given the structural similarity of the investigated substances and the fact that separation was performed on the same column with almost identical mobile phases, we assume that this order of elution for our compound set is always the (R)- before the (S)-enantiomer.
(§4) Detection was performed with an API 4000 tandem mass spectrometer (AB SCIEX, Darmstadt, Germany) operating in multiple-reaction-monitoring mode. Quantification was performed using the Analyst 1.6.2 software (AB SCIEX, Darmstadt, Germany) and quantified by comparison to standard curves with known concentrations.
(§5) All uptake data were normalized to protein content to account for variation in the number of seeded sells. Transporter-mediated net uptake was calculated by subtracting uptake into empty vector-transfected control cells from uptake into transporter-transfected cells. Kinetic parameters were then determined after non-linear regression following the Michaelis–Menten equation (v = vmax × [S]/(Km + [S])) using GraphPad Prism (Version 5.01 for Windows, GraphPad Software, La Jolla, CA, USA). Vmax refers to the maximum transport velocity and Km is defined as the substance concentration required to reach half of vmax. The intrinsic clearance Clint was calculated as the quotient of vmax over Km.

[2] = molecular target: T2, SERT (Homo sapiens, UniProt P31645); test: Stereoselective uptake into SERT-overexpressing HEK293 cells; settings: for Clint ± SEM: quotient of vmax over Km;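 on all read-outs here: uptake into HEK293 cells stably expressing human SERT over 2 min, enantiomers measured in cell lysate by chiral HPLC-MS/MS, normalized to total protein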
[3] = molecular target: T3, OCT1 (Homo sapiens, UniProt O15245); test: Stereoselective uptake into OCT1-overexpressing HEK293 cells; settings: for Clint ± SEM: quotient of vmax over Km; for selectivity ratio at 2 min: human;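 on all read-outs here: enantiomers quantified inside cells by chiral HPLC-MS/MS, uptake normalized to total protein from bicinchoninic acid assay, substrates applied in HBSS+ buffer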
T3 sequence (O15245 1-554): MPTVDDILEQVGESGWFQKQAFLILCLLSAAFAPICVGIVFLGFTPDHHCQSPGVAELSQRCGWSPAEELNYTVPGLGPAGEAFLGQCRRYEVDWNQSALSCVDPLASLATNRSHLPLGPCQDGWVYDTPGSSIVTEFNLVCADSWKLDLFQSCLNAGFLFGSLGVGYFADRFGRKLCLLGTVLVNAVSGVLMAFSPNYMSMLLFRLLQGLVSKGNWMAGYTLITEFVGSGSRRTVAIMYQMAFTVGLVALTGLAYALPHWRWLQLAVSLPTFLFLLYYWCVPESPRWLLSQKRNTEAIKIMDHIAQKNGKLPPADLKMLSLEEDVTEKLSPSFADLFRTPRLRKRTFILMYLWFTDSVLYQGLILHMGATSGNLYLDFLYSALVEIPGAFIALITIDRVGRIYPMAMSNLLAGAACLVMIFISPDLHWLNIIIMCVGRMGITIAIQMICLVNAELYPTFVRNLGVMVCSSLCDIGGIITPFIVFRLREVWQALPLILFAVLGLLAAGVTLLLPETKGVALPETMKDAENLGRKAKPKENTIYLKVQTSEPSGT

[4] = molecular target: T2, SERT; test: in vitro
[5] = molecular target: T4, OCT2 (Homo sapiens, UniProt O15244); test: Stereoselective uptake into OCT2 (wild-type)-overexpressing HEK293 cells; settings: OCT2; for Clint ± SEM: quotient of vmax over Km; for selectivity ratio at 2 min: human, ratio between enantiomers
T4 sequence (O15244 1-555 S270A): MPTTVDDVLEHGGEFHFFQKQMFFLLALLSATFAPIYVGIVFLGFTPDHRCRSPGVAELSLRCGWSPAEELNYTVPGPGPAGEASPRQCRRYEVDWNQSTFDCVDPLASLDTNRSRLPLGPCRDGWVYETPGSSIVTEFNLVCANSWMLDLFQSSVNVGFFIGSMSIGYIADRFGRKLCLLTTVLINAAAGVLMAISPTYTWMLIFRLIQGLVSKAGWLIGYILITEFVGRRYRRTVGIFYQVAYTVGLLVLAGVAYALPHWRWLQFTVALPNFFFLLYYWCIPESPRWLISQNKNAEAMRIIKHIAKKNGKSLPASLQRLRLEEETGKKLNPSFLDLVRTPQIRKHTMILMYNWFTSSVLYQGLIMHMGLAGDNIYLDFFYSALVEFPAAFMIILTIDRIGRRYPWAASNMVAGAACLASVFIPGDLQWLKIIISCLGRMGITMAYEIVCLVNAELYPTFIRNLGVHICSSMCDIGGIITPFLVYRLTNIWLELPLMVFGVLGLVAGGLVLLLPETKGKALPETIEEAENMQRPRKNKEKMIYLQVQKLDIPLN

[6] = molecular target: NET (Homo sapiens, UniProt P23975); test: Stereoselective uptake into NET-overexpressing HEK293 cells; settings: for Clint ± SEM: quotient of vmax over Km; for selectivity ratio at 2 min: human;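 on all read-outs here: intracellular enantiomers quantified in cell lysates by chiral HPLC-MS/MS after a 2 min substrate incubation, with uptake normalized to total cellular protein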
[7] = molecular target: DAT (Homo sapiens, UniProt Q01959); test: Stereoselective uptake into DAT-overexpressing HEK293 cells; settings: for Clint ± SEM / Stereoselectivity Vmax / Stereoselectivity Km: DAT; for Clint ± SEM: quotient of vmax over Km; for Stereoselectivity Vmax / Stereoselectivity Km: ratio between enantiomers; for selectivity ratio at 2 min: human;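 on all read-outs here: intracellular accumulation measured by chiral HPLC-MS/MS in stably transfected HEK293 cells, normalized to total protein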
Experimental: as §1, §2, §3, §4, §5

[8] = system: OCT2 wild-type versus A270S variant; test: in vitro; settings: human, Transporter selectivity, OCT2 wild-type versus A270S, 100 μM racemic substance, two minutes; given as for WT;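 further: uptake into HEK293 cells stably overexpressing human OCT2 variants, intracellular enantiomers quantified by chiral HPLC-MS/MS and normalized to total protein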
Experimental: as §1, §2
Intracellularly accumulated test substances were quantified by HPLC-MS/MS analysis using a Shimadzu Nexera HPLC system with a SIL-30AC autosampler, a CTO-20AC column oven, a LC-30AD pump, and a CBM-20A controller (Shimadzu, Kyoto, Japan). Stereoselective chromatography was carried out on a [sequence] CBH HPLC column (100 × 3 mm inner dimension with 5 μM particle size; Sigma-Aldrich, Darmstadt, Germany) with a corresponding 10 × 3 mm guard column. Reversed phased chromatography was carried out using an ammonium acetate (NH4Ac) buffered aqueous mobile phase with isopropyl alcohol (IPA) as organic solvent. […] The order of elution of the enantiomers was obtained from available reference literature [43] or by applying enantiopure reference compounds to the chiral HPLC. […] However, in every other case where the order of elution was available, the (R)-enantiomer eluted first. Given the structural similarity of the investigated substances and the fact that separation was performed on the same column with almost identical mobile phases, we assume that this order of elution for our compound set is always the (R)- before the (S)-enantiomer.
as §4, §5
HEK293 cells stably overexpressing wild-type or mutant OCT2 were incubated with 100 μM racemic substance for two minutes.

[9] = Stereoselectivity Km, OCT1, ratio between enantiomers, given as for (S) or for 2 (second-eluting)
[10] = Stereoselectivity Vmax, OCT1, ratio between enantiomers, given as for (R) or for 1
[11] = Stereoselectivity ClInt, given as for (S) or for 2
[12] = Stereoselectivity Km, given as for (R) or for 1 (first-eluting)
[13] = Stereoselectivity Vmax, given as for (R) or for 1
[14] = NET, ratio between enantiomers, given as for (R) or for 1
[15] = given as for (S) or for 2 (second-eluting)

Sequence of NET (P23975 whole entry): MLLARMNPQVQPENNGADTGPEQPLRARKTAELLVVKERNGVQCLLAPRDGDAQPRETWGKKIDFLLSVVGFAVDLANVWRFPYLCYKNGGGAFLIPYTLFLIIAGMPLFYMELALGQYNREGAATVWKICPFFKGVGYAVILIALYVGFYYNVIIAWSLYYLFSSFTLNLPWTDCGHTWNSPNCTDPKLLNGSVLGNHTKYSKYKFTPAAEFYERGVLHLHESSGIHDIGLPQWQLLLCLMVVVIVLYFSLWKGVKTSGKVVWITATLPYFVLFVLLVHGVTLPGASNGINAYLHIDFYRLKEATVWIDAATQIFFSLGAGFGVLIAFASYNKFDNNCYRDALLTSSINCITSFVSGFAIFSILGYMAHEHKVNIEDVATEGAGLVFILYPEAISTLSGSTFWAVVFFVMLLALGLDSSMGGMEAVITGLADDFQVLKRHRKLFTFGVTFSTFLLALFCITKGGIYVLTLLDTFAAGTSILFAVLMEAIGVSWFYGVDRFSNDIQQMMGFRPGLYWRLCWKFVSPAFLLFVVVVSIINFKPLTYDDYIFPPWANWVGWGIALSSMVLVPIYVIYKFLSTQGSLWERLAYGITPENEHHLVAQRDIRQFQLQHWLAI
T2 sequence (P31645 whole entry): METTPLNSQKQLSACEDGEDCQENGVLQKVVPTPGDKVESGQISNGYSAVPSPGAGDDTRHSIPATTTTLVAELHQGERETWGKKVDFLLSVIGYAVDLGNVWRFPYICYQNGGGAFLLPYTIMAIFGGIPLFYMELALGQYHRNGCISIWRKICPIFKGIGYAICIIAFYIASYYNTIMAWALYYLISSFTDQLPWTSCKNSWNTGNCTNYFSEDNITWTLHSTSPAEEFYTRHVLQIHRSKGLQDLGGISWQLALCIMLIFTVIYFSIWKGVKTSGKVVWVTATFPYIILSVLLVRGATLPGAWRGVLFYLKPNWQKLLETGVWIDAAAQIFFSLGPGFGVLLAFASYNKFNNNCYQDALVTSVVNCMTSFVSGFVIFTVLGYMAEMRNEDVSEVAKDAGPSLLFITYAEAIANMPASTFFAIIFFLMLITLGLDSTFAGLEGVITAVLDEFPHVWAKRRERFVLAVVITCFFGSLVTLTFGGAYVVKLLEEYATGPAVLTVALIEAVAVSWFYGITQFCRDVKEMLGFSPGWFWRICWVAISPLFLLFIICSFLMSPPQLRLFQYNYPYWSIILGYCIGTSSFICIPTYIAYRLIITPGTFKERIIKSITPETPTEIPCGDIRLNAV
Sequence of DAT (Q01959 whole entry): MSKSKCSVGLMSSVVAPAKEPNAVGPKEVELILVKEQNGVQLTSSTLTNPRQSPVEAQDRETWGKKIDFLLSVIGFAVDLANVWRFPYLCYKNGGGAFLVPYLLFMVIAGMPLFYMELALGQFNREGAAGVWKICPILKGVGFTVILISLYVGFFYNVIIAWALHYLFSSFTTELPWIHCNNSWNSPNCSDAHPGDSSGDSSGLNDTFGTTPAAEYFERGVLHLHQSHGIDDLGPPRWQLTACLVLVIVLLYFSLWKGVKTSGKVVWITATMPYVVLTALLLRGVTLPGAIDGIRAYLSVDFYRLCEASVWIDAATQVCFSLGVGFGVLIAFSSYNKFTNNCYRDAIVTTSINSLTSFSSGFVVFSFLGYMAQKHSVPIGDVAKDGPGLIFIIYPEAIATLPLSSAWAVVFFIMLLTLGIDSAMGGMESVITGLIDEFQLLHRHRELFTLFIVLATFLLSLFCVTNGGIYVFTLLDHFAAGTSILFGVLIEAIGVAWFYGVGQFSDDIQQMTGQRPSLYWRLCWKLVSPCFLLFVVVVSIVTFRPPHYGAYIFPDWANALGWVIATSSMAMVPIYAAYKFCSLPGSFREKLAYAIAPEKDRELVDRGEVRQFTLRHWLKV

| SMILES | Clint ± SEM [1] | Stereoselectivity Vmax [1] [fold] | Stereoselectivity Km [1] [fold] | selectivity ratio at 2 min [1] | Stereoselectivity Km [2] [fold] | Stereoselectivity Vmax [2] [fold] | Clint ± SEM ([2]; SERT) | Clint ± SEM ([3]; OCT1) | selectivity ratio at 2 min ([3]; Stereoselectivity ClInt) | selectivity ratio at 2 min [3, 9] | selectivity ratio at 2 min [3, 10] | selectivity ratio [4] | Clint ± SEM [5] | selectivity ratio at 2 min [5, 12] | selectivity ratio at 2 min [5, 13] | Clint ± SEM ([6]; NET) | selectivity ratio at 2 min [6] | Clint ± SEM [7] | selectivity ratio at 2 min [7] | selectivity ratio at 2 min, 100 μM [8] | further results |
| --- | --- | --- | --- | --- | --- | --- | --- | --- | --- | --- | --- | --- | --- | --- | --- | --- | --- | --- | --- | --- | --- |
| CNC[C@H](O)c1cccc(O)c1 [(R)-Phenylephrine] | 11.8 mL × g Protein^−1 × min^−1 | 3.33 | 1.19 | 2.79 | 1.89 | 1.49 | 17.2 mL × g Protein^−1 × min^−1 | 9.79 mL × g Protein^−1 × min^−1 | 1.11 | 1.02 | 1.08 | 2.82 | 29.5 mL × g Protein^−1 × min^−1 | 1.89 | 2.04 | 75.5 mL × g Protein^−1 × min^−1 | 1.43 | 17.2 mL × g Protein^−1 × min^−1 | 1.48 | 1.27 | Vmax ± SEM [2]: 356; Km ([2]; read-out: Km ± SEM, HEK293 cells overexpressing human SERT, racemic substrate, two minutes, net uptake minus empty vector control): 328 µM; selectivity ratio at 2 min [5, 11]: 1.02; Vmax ± SEM ([6]; HEK293 cells overexpressing human NET, racemic substrate, two minutes, net uptake): 392 pmol × mg Protein^−1 × min^−1; Stereoselectivity Vmax [6, 14]: 1.79 fold; Km ([6]; read-out: Km ± SEM, HEK293 cells overexpressing human NET, racemic substrate, two minutes, net uptake minus empty vector control): 5.12 µM; Stereoselectivity Vmax ([7]; given as for (R) or for 1): 1.56 fold; Stereoselectivity Km ([7]; given as for (R) or for 1 (first-eluting)): 1.06 fold; Vmax ± SEM ([7]; HEK293 cells overexpressing human DAT, racemic substrate, two minutes, net uptake): 613 pmol × mg Protein^−1 × min^−1; Km ([7]; read-out: Km ± SEM, HEK293 cells overexpressing human DAT, racemic substrate, two minutes, net uptake minus empty vector control): 35.6 µM |
| NCC(O)c1cccc(O)c1 (single isomer, unassigned) [Norphenylephrine-1, Norphenylephrine] | 11.0 mL × g Protein^−1 × min^−1 | 3.88 | 1.17 | 3.32 | 1.20 | 1.27 | 1.20 mL × g Protein^−1 × min^−1 | 4.02 mL × g Protein^−1 × min^−1 | 1.05 |  | 1.08 | 1.53 | 36.4 mL × g Protein^−1 × min^−1 | 1.57 | 2.19 | 189 mL × g Protein^−1 × min^−1 | 1.21 | 128 mL × g Protein^−1 × min^−1 | 1.29 | 1.18 | selectivity ratio at 2 min ([3]; Stereoselectivity Km, OCT1, ratio between enantiomers, given as for (R) or for 1 (first-eluting)): 1.03; selectivity ratio at 2 min ([5]; Stereoselectivity ClInt, given as for (R) or for 1): 1.4; Stereoselectivity Vmax ([6]; NET, ratio between enantiomers, given as for (S) or for 2): 1.25 fold; Stereoselectivity Vmax ([7]; given as for (S) or for 2): 1.55 fold; Stereoselectivity Km [7, 15]: 1.20 fold |
| CNC[C@@H](O)c1ccc(O)cc1 [(S)-Synephrine] | 27.8 mL × g Protein^−1 × min^−1 | 1.05 | 1.11 | 1.06 |  |  | 0.61 mL × g Protein^−1 × min^−1 | 12.1 mL × g Protein^−1 × min^−1 |  | 1.28 | 1.35 | 1.13 | 24.8 mL × g Protein^−1 × min^−1 | 2.07 | 2.05 | 7.92 mL × g Protein^−1 × min^−1 | 4.7 | 10.4 mL × g Protein^−1 × min^−1 | 2.23 | 1.2 | Stereoselectivity Vmax ([2]; SERT, ratio between enantiomers, given as for (S) or for 2): 1.35 fold; Stereoselectivity Km ([2]; SERT, ratio between enantiomers, given as for (S) or for 2 (second-eluting)): 1.52 fold; selectivity ratio at 2 min ([3]; Stereoselectivity ClInt, OCT1, ratio between enantiomers, given as for (R) or for 1 (also 1.00-fold for 1/2)): 1.73; selectivity ratio at 2 min [5, 11]: 1.01; Stereoselectivity Vmax [6, 14]: 1.80 fold; Stereoselectivity Km ([6]; NET, ratio between enantiomers, given as for (S) or for 2 (second-eluting)): 2.61 fold; Stereoselectivity Vmax ([7]; given as for (R) or for 1): 1.84 fold; Stereoselectivity Km [7, 15]: 1.21 fold |
